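Exposure lasted 48 hours, with cells grown in 96-well plates and compounds tested at five concentrations. TGI marks complete inhibition of growth.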

Common to all, as to assay: DTP human tumour cell line panel, 48 h
In test [1] the test system is HCT-116 colon.
The test system of test [2] is 786-0 renal.
Test [3] deals with HCT-15 colon.
For test [4], the system named is RXF 393 renal.
The subject of test [5] is OVCAR-4 ovarian.
Test [6] relates to UACC-62 melanoma.
Test [7] relates to MALME-3M melanoma.
In test [8] the test system is PC-3 prostate.
Test [9] deals with DU-145 prostate.
The subject of test [10] is CCRF-CEM leukemia.
Test [11] deals with UACC-257 melanoma.
Test [12] concerns KM12 colon.
For test [13], the system named is OVCAR-8 ovarian.
For test [14], the system named is K-562 leukemia.
The subject of test [15] is CAKI-1 renal.
Test [16] relates to SK-MEL-28 melanoma.
For test [17], the system named is OVCAR-3 ovarian.
Test [18] concerns RPMI-8226 leukemia.
Test [19] deals with SF-539 CNS.

With `Cc1ccc2c(=O)cc(-c3cccc4ccccc34)[nH]c2n1`, the TGI in test [1] was above 34.8 µM; in test [2] it was above 79.2 µM; in [3] it was 1.73 µM; in [4], above 100 µM; in test [5], above 85.1 µM; in test [6], above 100 µM. The TGI in [7] is 0.0495 µM; in test [8], above 43 µM; in test [9] it was above 74.7 µM; in test [10] it was above 100 µM; in test [11] it was above 100 µM; in [12], 1.98 µM. Also, the TGI in test [13] is 0.305 µM; in test [14], above 36.8 µM; in test [15] it was above 100 µM; in test [16], above 100 µM.
As to `CCOC(=O)CC(=O)C(=O)NNC1=NCCCN1`, the TGI in test [1], in test [2], in test [17], in test [18], in test [3] and in test [4] was above 100 µM in each case. Further, the TGI in test [5], in [6], in test [7], in [8], in [9] and in test [10] was above 100 µM throughout. For the same compound, the TGI in test [12], in [13], in [14], in [19] and in [16] was above 100 µM each time.
As for `O=C(O)C1(C(=O)O)CC1(C(=O)O)C(=O)O`, the TGI in test [1], in [2], in [3], in test [4], in test [5] and in test [6] was above 100 µM in each case. In addition, the TGI in [7], in test [8], in test [9], in [10], in [11] and in test [12] was above 100 µM in each case. In addition, the TGI in [13], in [14], in [19], in test [15] and in test [16] was above 100 µM throughout.
Turning to `Cc1cn(C2CC(O)C(Cn3cc(Cn4ncc(=O)[nH]c4=O)nn3)O2)c(=O)[nH]c1=O` (configuration not stated), the TGI in test [1], in [2], in test [17], in test [18], in test [3] and in [4] was above 100 µM throughout. The TGI in [5], in test [6], in test [7], in [8], in test [9] and in [10] was above 100 µM each time. The TGI in [11], in test [12], in [13], in [19], in test [15] and in test [16] was above 100 µM throughout.
Regarding `Cc1cccc(N=Nc2c(C)nn(C(=O)CC(=O)Nc3ccccc3)c2C)c1`, the TGI in [1], in [2], in test [17], in test [18], in [3] and in [4] was above 100 µM in each case. Further, the TGI in test [5], in test [6], in test [7], in test [8], in [9] and in test [10] was above 100 µM in each case. Besides, the TGI in test [12], in test [13], in [19], in [15] and in test [16] was above 100 µM in each case.
As to `CCOC(=O)n1[nH]c(=O)n(-c2ccccc2)c1=O`, the TGI in test [1], in [2], in test [17], in test [18], in [3] and in test [4] was above 100 µM in each case. Further, the concentration for total growth inhibition (TGI) in test [5], in test [6], in test [7], in test [8], in [9] and in [10] was above 100 µM in each case. Moreover, the TGI in [11], in [12], in [13], in [14], in [15] and in [16] was above 100 µM throughout.
In the case of `O=C1OCC2(CO1)CC1C=CC2C1` (configuration not stated), the TGI in test [1], in [2], in [17], in [18], in [3] and in test [4] was above 100 µM each time. The TGI in test [5], in [6], in [7], in test [8], in test [9] and in test [11] was above 100 µM each time. Moreover, the TGI in test [12], in test [14], in test [19], in test [15] and in [16] was above 100 µM each time.
In the case of `Nc1ncnc2c1ncn2C1C=CC(CP(=O)(O)O)C1` (configuration not stated), the TGI in test [1], in test [2], in test [17], in test [18], in test [3] and in [4] was above 100 µM each time. Also, the TGI in [5], in test [6], in test [7], in test [8], in [9] and in [11] was above 100 µM in each case. In addition, the TGI in [12], in [13], in [19], in [15] and in [16] was above 100 µM throughout.
Consider `O=c1[nH]c(-c2cccc(F)c2)nc2ccccc12`, for which the TGI is above 57.7 µM in [1]; above 100 µM in test [2]; above 100 µM in test [17]; above 100 µM in test [18]; above 100 µM in [3]; 89.4 µM in test [4]. Besides, the TGI in test [5] was above 65.9 µM; in test [6], above 67.3 µM; in test [7], above 100 µM; in test [8], above 100 µM; in [9], above 100 µM; in [10], above 100 µM. For the same compound, the TGI in test [11] is above 100 µM; in test [12] it was above 100 µM; in test [13], above 93.1 µM; in test [14], above 100 µM; in test [15] it was above 100 µM; in [16] it was above 100 µM.
For the compound `COC(=O)C(=O)c1c2ccccc2n2ccc3c4ccccc4[nH]c3c12`, the TGI in [1], in [2], in [17], in test [18], in [3] and in test [4] was above 10 µM each time. Also, the TGI in [5], in test [6], in test [7], in test [8], in test [9] and in [10] was above 10 µM throughout. For the same compound, the TGI in [11], in test [12], in test [13], in test [14], in test [19] and in [15] was above 10 µM each time.
In the case of `COC(=O)CCC(NC(=O)C(C)NC(=O)COC1C(O)C(OC(=O)CCNc2c3ccccc3nc3cccc([N+](=O)[O-])c23)OC(OCc2ccccc2)C1NC(C)=O)C(N)=O` (configuration not stated), the TGI in test [1] was 9.11 µM; in test [2], above 10 µM; in test [17] it was above 10 µM; in test [3], above 10 µM; in [4] it was 8.28 µM; in [6], above 10 µM. In addition, the TGI in test [7] is 7.06 µM; in test [8], above 10 µM; in test [9] it was 7.06 µM; in [10], above 10 µM; in test [11] it was above 10 µM; in test [12] it was above 10 µM. The TGI in [13], in test [14] and in [19] was above 10 µM throughout.
`CCOC(=O)c1sc2nc(SC)nc3c2c1N=CN3c1ccccc1Cl`: the TGI was above 100 µM in [1]; 33.6 µM in test [2]; above 100 µM in test [17]; above 100 µM in [18]; above 100 µM in test [3]; 68.6 µM in test [4]. Also, the TGI is 42.4 µM in test [5]; above 100 µM in test [6]; above 100 µM in test [7]; above 100 µM in [8]; above 100 µM in [9]; above 100 µM in [10]. Also, the TGI in [11] was above 100 µM; in test [12], above 100 µM; in [13], above 100 µM; in test [14], above 100 µM; in [15], 89.1 µM; in test [16] it was above 100 µM.
Turning to `Cc1cc2c(cc1Cl)SC(N/N=C(\N)c1ccc(Cl)cc1)=NS2(=O)=O`, the TGI in test [1], in test [2], in [17], in [3], in test [4] and in [5] was above 100 µM throughout. The TGI in test [6], in [7], in [8], in test [9], in test [10] and in [11] was above 100 µM each time. Besides, the TGI in test [12] was above 100 µM; in [13] it was above 100 µM; in test [14] it was above 100 µM; in test [19], 84.2 µM; in [15], above 100 µM; in [16], above 100 µM.
Regarding `CC(=O)OCC1OC(n2c(C)c(N=Nc3ccccc3)c(C)c(C#N)c2=S)C(OC(C)=O)C(OC(C)=O)C1OC(C)=O` (configuration not stated), the TGI in test [1] was 60 µM; in test [2], 22.7 µM; in [17], above 100 µM; in [18], above 100 µM; in test [4], 32.4 µM; in [5], above 100 µM. In addition, the TGI in [6] is 33.3 µM; in test [7], above 100 µM; in test [8], above 100 µM; in test [9], above 100 µM; in test [10], above 100 µM; in test [11] it was above 100 µM. Besides, the TGI in test [12], in test [14], in [19], in [15] and in test [16] was above 100 µM in each case.
Take `COc1ccc(N=C2C(=O)C3=C(OC(C)(C)CC3)c3ccccc32)cc1`: the TGI in [1] was 1.48 µM; in test [2] it was 1.99 µM; in test [17], 1.5 µM; in test [3] it was 10.8 µM; in [4], 2.43 µM; in test [5], 1.51 µM. Further, the TGI in test [6] worked out at 1.74 µM; in [7], 1.59 µM; in test [8], 5.49 µM; in [9], 1.57 µM; in [10], 4.43 µM; in [11] it was 2.09 µM. In addition, the TGI in test [12] amounted to 1.97 µM; in test [13] it was 8.37 µM; in test [14] it was 2.24 µM; in test [19] it was 0.806 µM; in test [15], 1.84 µM; in test [16] it was 2.48 µM.
Regarding `OCC1NCC(O)C(O)C1O` (configuration not stated), the TGI in test [1], in test [2], in test [17], in test [18], in test [3] and in test [4] was above 100 µM throughout. Further, the TGI in test [5] is above 100 µM; in test [6], above 100 µM; in test [7], 55.8 µM; in test [8], above 100 µM; in test [9] it was above 100 µM; in test [10] it was above 100 µM. In addition, the TGI in test [11], in test [12], in [13], in test [19], in [15] and in test [16] was above 100 µM in each case.

The values are drawn from PubChem BioAssay (NCI).
